From PubChem BioAssay AID179 (DTP/NCI, 2004)
“And” between values parts separate entries of the source, which are not always exact repeats. Equal values may be shown once. The source made the active and inactive calls.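 How the source made its calls: active means compounds giving half or more protection of infected cells from virus-caused growth loss, again on retest; inactive means the rest.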

System: CEM cells HIV-1 protection, formazan growth assay
Test: NCI AIDS Antiviral Assay
Details: for IC50: measured here: growth of uninfected CEM cells
Method in brief: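 Protection of CEM cells against HIV-1 measured as cell growth via soluble formazan read-out, with five concentrations tested on both infected and uninfected cells; failure to protect may reflect toxicity.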

Row | Structure (SMILES) | EC50 | IC50 | outcome
1 | O=C(Nc1ccc(Cl)cc1)c1cc(S(=O)(=O)Nc2nc3ncccc3[nH]2)c(SSc2cc(Cl)c(C(=O)Nc3ccc(Cl)cc3)cc2S(=O)(=O)Nc2nc3ncccc3[nH]2)cc1Cl | > 200 µM | > 200 µM | 
2 | COc1ccc2c(c1)C/C(=C\c1ccc(O)c(OC)c1)C2=O | > 200 µM | > 200 µM | 
3 | CC(C)c1cccc(C(C)C)c1O | > 200 µM | > 200 µM | 
4 | CCOC(=O)/C(=C\c1c(C)[nH]c2ccccc12)P(=O)(OCC)OCC | 69.2 µM | 110 µM | 
5 | NNC(=S)NCCNC(=S)NN | > 200 µM | > 200 µM | 
6 | O=C1OC(=O)C(=C\c2ccc3c(c2)OCO3)/C1=C/c1ccc2c(c1)OCO2 |  |  | inactive
7 | NC(N)=NS(=O)(=O)c1ccc(NC(=O)c2ccc3nc4ccccc4c(N)c3c2)cc1 | 102 µM | > 200 µM | 
8 | COC(=O)c1ccn2c(N(C)C)[n+]3ccc(C(=O)OC)cc3c2c1 | > 100 µM | > 100 µM | 
9 | C[N+](C)(C)CCCC#CC[N+]1(C)CCOCC1 |  |  | inactive
10 | CNCCS(=O)(=O)O | > 200 µM | > 200 µM | 
11 | CN(C)CCCNC(=O)CCNC(=O)c1cc(NC(=O)c2cc(NC(=O)c3cc(NC(=O)c4nc(NC(=O)CCCNC(=O)c5cc(NC(=O)c6cc(NC(=O)c7cc(NC(=O)c8nccn8C)cn7C)cn6C)cn5C)cn4C)cn3C)cn2C)cn1C | > 141 µM | 24.5 µM | 
12 | CO[C@@H]1C=C[C@@]23c4cc5c(cc4CN(C[C@@H]2O)[C@H]3C1)OCO5 | > 603 µM | 1.1 µM | 
13 | O=C(NNC(=O)c1ccncc1)C(=O)Nc1cc(Cl)c(Cl)cc1Cl | > 18.6 µM | > 18.6 µM | 
14 | C=C1C[C@@H]2C[C@@H](C)CC(O)[C@]2(CCCNC(=O)CCOCc2ccccc2)C1O (some centres not stated) |  |  | inactive
15 | CC1CN1C(=O)NCCCCCCNC(=O)N1CC1C (configuration not stated) | > 200 µM | 4.79 µM | 
16 | O=C(Nc1ccccc1)OCC1OCOC(COC(=O)Nc2ccccc2)C1OC(=O)Nc1ccccc1 (configuration not stated) | > 200 µM | 4.47 µM | 
17 | O=c1[nH]nc(-c2ccccc2)n1-c1ccncc1 | > 200 µM | > 200 µM | 
18 | Cc1cc(=O)n2c(nc3cc([N+](=O)[O-])ccc32)s1 | > 200 µM | 186 µM | 
19 | O=C1C(=Cc2cccs2)C(=O)N(CCc2ccccc2)S(=O)(=O)N1CCc1ccccc1 | > 8.13 µM | > 8.13 µM | 
20 | N#Cc1ccc(OCc2nc3cc(C(F)(F)F)ccc3nc2-c2ccccc2)cc1 | > 200 µM | 30.2 µM | 
21 | NC1CC(=O)c2c(Cl)sc(Cl)c21 (configuration not stated) | > 200 µM | 3.47 µM | 
22 | COc1cc(Br)c(C=Nc2cccc3ccc(OS(=O)(=O)c4cccc([N+](=O)[O-])c4)cc23)cc1OC |  |  | inactive

Row | Structure (SMILES) | EC50 | IC50 | outcome
23 | Cc1ccc(S(=O)(=O)c2ccccc2)cc1 | > 155 µM | > 155 µM | 
24 | COc1cccc(CCNc2c(C#N)c3n(c4ccccc4[n+]3C)c3ncccc23)c1 | > 200 µM | 1 µM | 
25 | Cc1nc2ccccc2c(=O)n1NC(=O)c1ccc(N)cc1 | > 200 µM | > 200 µM | 
26 | O=C(O)/C=C/C(=O)Nc1ncn[nH]1 | > 1380 µM | 1320 µM | 
27 | CN(C)c1ccc(C2ON=C(c3ccccc3)N2C23CC4CC(CC(C4)C2)C3)cc1 (configuration not stated) | > 200 µM | 24 µM | 
28 | CC1=NN(C(=O)c2ccccc2O)C(=O)/C1=C/c1cccc([N+](=O)[O-])c1 | > 141 µM | 0.0977 µM | 
29 | Cc1nc2cc3[nH]c4ccccc4c(=O)c3cc2s1 | > 148 µM | > 148 µM | 
30 | O=C1/C(=C/c2ccccc2)CN(C(=O)Oc2ccc(Cl)cc2)C/C1=C\c1ccccc1 |  |  | inactive
31 | CC(=O)NC(=O)C(C(C)=O)c1ccccc1 (configuration not stated) | > 1150 µM | > 1150 µM | 
32 | CCCCCC=C(c1cc(Cl)c(OC)c(C(=O)O)c1)c1cc(Cl)c(OC)c(C(=O)O)c1 | 129 µM and > 126 µM | 155 µM and 83.2 µM | 
33 | CCCC(=O)Nc1ccc(O)c2c1C1CCCCCC21 (configuration not stated) | > 200 µM | 102 µM | 
34 | Cn1c2ccccc2n2c3ccccc3c(=O)c(C#N)c12 | > 200 µM | 2.57 µM | 
35 | COc1cccc2ccc(C(=O)c3ccccc3)nc12 | > 97.7 µM | > 97.7 µM | 
36 | CCCS(=O)(=O)O | > 200 µM | > 200 µM | 
37 | Cc1cccc(C(C)C)c1NC(=O)C(=O)CC(=O)c1sc(Nc2ccccc2Cl)nc1C | > 200 µM | > 200 µM | 
38 | COC(=O)C12CN(C)CC(C(=O)OC)(C1=O)C(c1ccccn1)N(C)C2c1ccccn1 (configuration not stated) | > 51.3 µM | 36.3 µM | 
39 | Nc1nncc2n[nH]nc12 | > 200 µM | 174 µM | 
40 | CNCC(=O)NC(CO)C(=O)NC(CO)C(=O)NC1C(C(N)=O)OC(n2ccc(N)nc2=O)C(O)C1O (configuration not stated) |  |  | inactive
41 | Cn1nc(-c2ccc(Cl)c(Cl)c2)[n+]([O-])c2c(=O)n(C)c(=O)nc1-2 | > 200 µM | 1.38 µM | 
42 | CCN(CCCl)CCCNc1c2ccccc2nc2ccc(OC)cc12 | > 20 µM | 0.295 µM | 
43 | CC1=NN(C(=O)CC(=O)Nc2cccc(Cl)c2)C(=O)C1N=Nc1ccc(C(=O)O)cc1 (configuration not stated) | > 200 µM | 52.5 µM | 
44 | CCOC(=O)CC(C#N)(CC(=O)OCC)C(=O)OCC |  |  | inactive

Row | Structure (SMILES) | EC50 | IC50 | outcome
45 | CC(C)(C)OC(=O)NCC(O)CNC(=O)OC(C)(C)C | > 871 µM | > 871 µM | 
46 | O=[N+]([O-])c1cccc(C2=NN(c3ccccc3)C3c4cc(Br)ccc4OCC23)c1 (configuration not stated) | > 11.5 µM | > 11.5 µM | 
47 | Nc1nc(Cl)cc(NCC2(CO)CC(O)C2)n1 (configuration not stated) | > 200 µM | > 200 µM | 
48 | O=C1c2cccc3cccc(c23)C(=O)N1O | > 100 µM | 7.41 µM | 
49 | Cc1cc(O)c(C=O)c2c1C(=O)Oc1c(C)c(O)c(C(=O)O)c(C)c1O2 | > 200 µM | 186 µM | 
50 | CC1CC(=O)Nc2cc(C(F)(F)F)ccc2N1 (configuration not stated) | > 200 µM | > 200 µM | 
51 | C#CC(C)(C)C(/C=N\NC(=O)O[C@H]1CC(C)CCC1C(C)C)CCC(=O)OC (some centres not stated) | > 200 µM | 25.1 µM | 
52 | C[C@H](C(=O)O)C(=O)NC(=O)N(Cc1ccccc1)N=O |  |  | inactive
53 | COc1cccc2c1C(=O)c1c(O)c3c(c(O)c1C2=O)C[C@@](O)(C(=O)CO)C[C@@H]3OC1CC(N2CCOCC2)C(O)C(C)O1 (some centres not stated) |  |  | inactive
54 | OCCN1CCN(CCCN2c3ccccc3Sc3ccc(C(F)(F)F)cc32)CC1 | > 200 µM | 10.2 µM | 
55 | O=C(CCN1CCCC1)c1ccc(Oc2ccc(F)cc2)cc1 | > 200 µM | 110 µM | 
56 | COc1nc(NC2OC(COC(C)=O)C(OC(C)=O)C(OC(C)=O)C2OC(C)=O)c2c(n1)OCC2=O (configuration not stated) |  |  | inactive
57 | COc1ccc(OC(=O)N2C/C(=C\c3ccccc3)C(=O)/C(=C/c3ccccc3)C2)cc1 |  |  | inactive
58 | O=C(/C=C/c1ccc(O)c(O)c1)OCCCc1ccccc1 | > 200 µM | 5.01 µM | 
59 | O=C(O)C1=CCCc2ccc3ccccc3c21 |  |  | inactive
60 | O=c1oc2c(ccc3c(O)cccc32)c2c1CCCC2 | > 200 µM | > 200 µM | 
61 | O=C(O)c1cc(N=Nc2cccc([N+](=O)[O-])c2)ccc1O | > 200 µM | 67.6 µM | 
62 | COc1ccc(NC(=O)CSc2nnc(-c3ccc(N=Cc4ccc(Cl)cc4)cc3)o2)cc1 | > 141 µM | 31.6 µM | 
63 | C/C(=N\NS(=O)(=O)c1ccc(C)cc1)C(CN(C)C)C(c1ccccc1)c1c(O)c2ccccc2oc1=O (configuration not stated) | > 72.4 µM | > 72.4 µM | 
64 | N#CNc1nc(N)c(-c2ccc(Cl)cc2)c(C(=O)Nc2ccc(Cl)c(Cl)c2)n1 |  |  | inactive
65 | CC(C)=CCC[C@@H](C)C1[C@@H](OC2OC(CO)C(O)C(O)C2O)CC2(C)[C@@H]3CC(=O)C4C(C)(C)[C@@H](OC5OC(CO)C(O)C(O)C5O)CC[C@@]45C[C@@]35CC[C@]12C (some centres not stated) | > 33.1 µM | 31.6 µM | 
66 | CCC1CCCCN1CC(C(C)=O)C(c1ccccc1)c1c(O)c2ccccc2oc1=O (configuration not stated) | > 69.2 µM | > 69.2 µM | 

Row | Structure (SMILES) | EC50 | IC50 | outcome
67 | O=C(/C=C\c1cccc2ccccc12)c1ccc(Br)cc1 | > 3.09 µM | > 3.09 µM | 
68 | Cc1ccc(S(=O)(=O)OC2C(O)C(O)OC2C(c2cc(O)c3c(c2O)C(=O)c2ccccc2C3=O)c2cc(O)c3c(c2O)C(=O)c2ccccc2C3=O)cc1 (configuration not stated) | > 200 µM | 14.5 µM | 
69 | CC1(C)CSC(=S)N1 | > 200 µM | > 200 µM | 
70 | Cc1c(CC/C(=N\Nc2ccc([N+](=O)[O-])cc2[N+](=O)[O-])c2ccccc2)c2ccccc2n1C |  |  | inactive
71 | COC(=O)CCC1CCc2c(OC)ccc(OC)c2C1=O (configuration not stated) |  |  | inactive
72 | CNC(=O)OC(COC)CN1CCN(c2ccccc2C)CC1 (configuration not stated) | > 200 µM | > 200 µM | 
73 | CCN(CC)CC(=O)Nc1ccc(CO)cc1 | > 200 µM | > 200 µM | 
74 | COc1ccc(-c2nc(N)c(C#N)c3c2CCSc2ccc(C)cc2-3)cc1OC | > 200 µM | 11.7 µM | 
75 | O=C(C[n+]1ccccc1)c1ccc(O)c(O)c1 | 0.0631 µM | > 200 µM | 
76 | CC(=O)OCC1OC(n2cc(C(F)(F)F)c(=O)[nH]c2=O)CC1OC(C)=O (configuration not stated) | > 200 µM | 2.45 µM | 
77 | Brc1ccc(-c2ccc3nnnn3n2)s1 | > 200 µM | > 200 µM | 
78 | COc1ccc(I)c(CCC(C(=O)O)C2=CCC3(CC2)OCCO3)c1 (configuration not stated) | > 145 µM | > 145 µM | 
79 | COc1ccc(C(=O)O)c(Cc2cccc3ccccc23)c1 |  |  | inactive
80 | Cc1nc(N)nc(N)c1N1CCN(c2ccc(S(N)(=O)=O)cc2)CC1 | > 200 µM | 0.398 µM | 
81 | COc1ccc(CCNC(=O)Cc2ccccc2CCO)cc1OC | > 200 µM | > 200 µM | 
82 | NC(N)=NS(=O)(=O)c1ccc(NNc2c3ccccc3nc3c(C(=O)Nc4ccc(S(=O)(=O)Nc5ncccn5)cc4)cccc23)cc1 | > 100 µM | 22.9 µM | 
83 | CC(C)Oc1c(O)c2c3c(oc(=O)n3C=CC2c2ccccc2)c1OC(C)C (configuration not stated) | > 200 µM | 21.9 µM | 
84 | Cc1ccc(C2(c3ccc(C)cc3)SC(=C(C#N)C#N)c3ccccc32)cc1 | > 200 µM | > 200 µM | 
85 | C/C(CC(O)(C(F)(F)F)C(F)(F)F)=N\NC(N)=O | > 200 µM | > 200 µM | 
86 | CCOC(=O)C(CC(C(=O)OCC)C(=O)OCC)C(=O)OCC |  |  | inactive
87 | CC(C)[Si](OC1=C(c2ccccc2)C(NC(=O)/C=C/c2ccc([N+](=O)[O-])cc2)CCC1)(C(C)C)C(C)C (configuration not stated) | > 200 µM | > 200 µM | 
